These results are taken from patent US7592345B2, “Piperazine and [1,4]diazepan derivatives as NK antagonists” (Hoffmann-La Roche Inc., priority 2007, dated 2009).

The experiment has as its target T1, recombinant human NK3 receptor (Homo sapiens, UniProt P29371).
T1 construct: expressed in transfected cells; host or cells: HEK293 cells (transient expression), membranes
T1 sequence (P29371 1-465): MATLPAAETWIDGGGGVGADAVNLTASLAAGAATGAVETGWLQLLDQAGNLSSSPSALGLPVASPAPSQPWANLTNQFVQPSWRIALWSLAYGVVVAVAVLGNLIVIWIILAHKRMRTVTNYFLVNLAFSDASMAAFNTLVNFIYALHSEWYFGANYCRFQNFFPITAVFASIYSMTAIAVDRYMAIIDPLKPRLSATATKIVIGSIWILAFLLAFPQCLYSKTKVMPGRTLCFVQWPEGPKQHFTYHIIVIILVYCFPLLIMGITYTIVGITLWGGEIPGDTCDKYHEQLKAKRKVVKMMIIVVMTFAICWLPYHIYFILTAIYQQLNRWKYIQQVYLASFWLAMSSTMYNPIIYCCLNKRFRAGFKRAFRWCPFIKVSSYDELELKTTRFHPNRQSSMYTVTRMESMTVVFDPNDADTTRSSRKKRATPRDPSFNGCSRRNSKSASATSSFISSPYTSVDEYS
In words: [3H]SR142801 competition binding assay. Conditions: [3H]SR142801, membranes from HEK293 cells transiently expressing recombinant human NK3 receptor; read-out: hNK3 Ki. The gist of the method:
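Membranes from HEK293 cells transiently expressing human NK3 were incubated 75 min at RT with [3H]SR142801 at its KD and inhibitor (0.0003-10 μM) in Tris-HCl pH 7.4/MnCl2/phosphoramidon/BSA. Nonspecific binding used 10 μM SB222200. Ki from Hill-fitted IC50 via Cheng-Prusoff, duplicate determinations.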
For orientation: Ki means the dissociation constant of the complex between target and ligand, obtained from inhibition or displacement. With `C[C@H]1CN(CCC(C)(C(=O)N(C)Cc2ccc(F)c(C(F)(F)F)c2)c2ccc(Cl)c(Cl)c2)CCN1S(C)(=O)=O` (stereo partly drawn) [Example 64, 2-(3,4-Dichloro-phenyl)-N-(4-fluoro-3-trifluoromethyl-benzyl)-4-((S)-4-methanesulfonyl-3-methyl-piperazin-1-yl)-2,N-dimethyl-butyramide], the inhibition constant (Ki) turned out to be 16.8 nM.

For `C[C@H]1CN(CCC(C)(C(=O)NCc2cc(C(F)(F)F)cc(C(F)(F)F)c2)c2ccc(Cl)c(Cl)c2)CCN1S(C)(=O)=O` (stereo partly drawn) [Example 65, N-(3,5-Bis-trifluoromethyl-benzyl)-2-(3,4-dichloro-phenyl)-4-((S)-4-methanesulfonyl-3-methyl-piperazin-1-yl)-2-methyl-butyramide], the Ki is 84.6 nM. The figure for `COc1cc(CN(C)C(=O)C(C)(CCN2CCN(S(C)(=O)=O)[C@@H](C)C2)c2ccc(Cl)c(Cl)c2)ccc1OC(F)F` (stereo partly drawn) [Example 66, 2-(3,4-Dichloro-phenyl)-N-(4-difluoromethoxy-3-methoxy-benzyl)-4-((S)-4-methanesulfonyl-3-methyl-piperazin-1-yl)-2,N-dimethyl-butyramide] is 277 nM; for `Cc1ccc(CN(C)C(=O)C(C)(CCN2CCN(S(C)(=O)=O)[C@@H](C)C2)c2ccc(Cl)c(Cl)c2)cc1` (stereo partly drawn) [Example 67, 2-(3,4-Dichloro-phenyl)-4-((S)-4-methanesulfonyl-3-methyl-piperazin-1-yl)-2,N-dimethyl-N-(4-methyl-benzyl)-butyramide] it is 99.2 nM.

`C[C@H]1CN(CCC(C)(C(=O)NCc2ccc(N(C)C)cc2)c2ccc(Cl)c(Cl)c2)CCN1S(C)(=O)=O` (stereo partly drawn) [Example 68, 2-(3,4-Dichloro-phenyl)-N-(4-dimethylamino-benzyl)-4-((S)-4-methanesulfonyl-3-methyl-piperazin-1-yl)-2-methyl-butyramide]: the Ki turned out to be 734 nM. In the case of `C[C@H]1CN(CCC(C)(C(=O)N(C)Cc2ccc(Cl)c(C(F)(F)F)c2)c2ccc(Cl)c(Cl)c2)CCN1S(C)(=O)=O` (stereo partly drawn) [Example 69, N-(4-Chloro-3-trifluoromethyl-benzyl)-2-(3,4-dichloro-phenyl)-4-((S)-4-methanesulfonyl-3-methyl-piperazin-1-yl)-2,N-dimethyl-butyramide], the Ki amounted to 11.4 nM. To `C[C@H]1CN(CCC(C)(C(=O)N(C)Cc2ccc(C(F)(F)F)c(F)c2)c2ccc(Cl)c(Cl)c2)CCN1S(C)(=O)=O` (stereo partly drawn) [Example 70, 2-(3,4-Dichloro-phenyl)-N-(3-fluoro-4-trifluoromethyl-benzyl)-4-((S)-4-methanesulfonyl-3-methyl-piperazin-1-yl)-2,N-dimethyl-butyramide] belongs 19.2 nM; to `C[C@H]1CN(CCC(C)(C(=O)N(C)Cc2ccc(Cl)c(Cl)c2)c2ccc(Cl)c(Cl)c2)CCN1S(C)(=O)=O` (stereo partly drawn) [Example 71, N-(3,4-Dichloro-benzyl)-2-(3,4-dichloro-phenyl)-4-((S)-4-methanesulfonyl-3-methyl-piperazin-1-yl)-2,N-dimethyl-butyramide], 12.5 nM; to `C[C@H]1CN(CCC(C)(C(=O)NCc2ccc(Cl)c(Cl)c2)c2ccc(Cl)c(Cl)c2)CCN1S(C)(=O)=O` (stereo partly drawn) [Example 72, N-(3,4-Dichloro-benzyl)-2-(3,4-dichloro-phenyl)-4-((S)-4-methanesulfonyl-3-methyl-piperazin-1-yl)-2-methyl-butyramide], 42.9 nM. To `C[C@H]1CN(CCC(C)(C(=O)NCc2cccc(OC(F)F)c2)c2ccc(Cl)c(Cl)c2)CCN1S(C)(=O)=O` (stereo partly drawn) [Example 73, 2-(3,4-Dichloro-phenyl)-N-(3-difluoromethoxy-benzyl)-4-((S)-4-methanesulfonyl-3-methyl-piperazin-1-yl)-2-methyl-butyramide] belongs 300 nM; to `C[C@H]1CN(CCC(C)(C(=O)NCc2cc(F)ccc2C(F)(F)F)c2ccc(Cl)c(Cl)c2)CCN1S(C)(=O)=O` (stereo partly drawn) [Example 74, 2-(3,4-Dichloro-phenyl)-N-(5-fluoro-2-trifluoromethyl-benzyl)-4-((S)-4-methanesulfonyl-3-methyl-piperazin-1-yl)-2-methyl-butyramide], 496 nM; to `C[C@H]1CN(CCC(C)(C(=O)NCc2ccc(C(F)(F)F)cc2)c2ccc(Cl)c(Cl)c2)CCN1S(C)(=O)=O` (stereo partly drawn) [Example 75, 2-(3,4-Dichloro-phenyl)-4-((S)-4-methanesulfonyl-3-methyl-piperazin-1-yl)-2-methyl-N-(4-trifluoromethyl-benzyl)-butyramide], 68.1 nM.

Consider `C[C@H]1CN(CCC(C)(C(=O)NCc2cc(C(F)(F)F)ccc2F)c2ccc(Cl)c(Cl)c2)CCN1S(C)(=O)=O` (stereo partly drawn) [Example 76, 2-(3,4-Dichloro-phenyl)-N-(2-fluoro-5-trifluoromethyl-benzyl)-4-((S)-4-methanesulfonyl-3-methyl-piperazin-1-yl)-2-methyl-butyramide], for which the Ki was found to be 311 nM.

On to `CC(NC(=O)C(C)(CCN1CCN(S(C)(=O)=O)[C@@H](C)C1)c1ccc(Cl)c(Cl)c1)c1ccc(Cl)cc1` (stereo partly drawn) [Example 77, N-[1-(4-Chloro-phenyl)-ethyl]-2-(3,4-dichloro-phenyl)-4-((S)-4-methanesulfonyl-3-methyl-piperazin-1-yl)-2-methyl-butyramide], for which the Ki was determined as 67.4 nM.

For the compound `COc1cccc(CN(C)C(=O)C(C)(CCN2CCN(S(C)(=O)=O)[C@@H](C)C2)c2ccc(Cl)c(Cl)c2)c1` (stereo partly drawn) [Example 78, 2-(3,4-Dichloro-phenyl)-4-((S)-4-methanesulfonyl-3-methyl-piperazin-1-yl)-N-(3-methoxy-benzyl)-2,N-dimethyl-butyramide], the Ki is 611 nM. For `C[C@H]1CN(CCC(C)(C(=O)N(C)Cc2ccccc2Cl)c2ccc(Cl)c(Cl)c2)CCN1S(C)(=O)=O` (stereo partly drawn) [Example 79, N-(2-Chloro-benzyl)-2-(3,4-dichloro-phenyl)-4-((S)-4-methanesulfonyl-3-methyl-piperazin-1-yl)-2,N-dimethyl-butyramide], the inhibition constant Ki worked out at 168 nM. The figure for `CC(NC(=O)C(C)(CCN1CCN(S(C)(=O)=O)[C@@H](C)C1)c1ccc(Cl)c(Cl)c1)c1ccc(Cl)c(Cl)c1` (stereo partly drawn) [Example 80, 2-(3,4-Dichloro-phenyl)-N-[1-(3,4-dichloro-phenyl)-ethyl]-4-((S)-4-methanesulfonyl-3-methyl-piperazin-1-yl)-2-methyl-butyramide] is 16.2 nM; for `C[C@H]1CN(CCC(C)(C(=O)NCc2cccc(OC(F)(F)F)c2)c2ccc(Cl)c(Cl)c2)CCN1S(C)(=O)=O` (stereo partly drawn) [Example 81, 2-(3,4-Dichloro-phenyl)-4-((S)-4-methanesulfonyl-3-methyl-piperazin-1-yl)-2-methyl-N-(3-trifluoromethoxy-benzyl)-butyramide] it is 126 nM.

Take `C[C@H]1CN(CCC(C)(C(=O)NCc2ccc(Cl)c(F)c2)c2ccc(Cl)c(Cl)c2)CCN1S(C)(=O)=O` (stereo partly drawn) [Example 82, N-(4-Chloro-3-fluoro-benzyl)-2-(3,4-dichloro-phenyl)-4-((S)-4-methanesulfonyl-3-methyl-piperazin-1-yl)-2-methyl-butyramide]: the inhibition constant Ki was found to be 94.2 nM. To `C[C@H]1CN(CCC(C)(C(=O)NCc2ccc(OC(F)(F)F)cc2)c2ccc(Cl)c(Cl)c2)CCN1S(C)(=O)=O` (stereo partly drawn) [Example 83, 2-(3,4-Dichloro-phenyl)-4-((S)-4-methanesulfonyl-3-methyl-piperazin-1-yl)-2-methyl-N-(4-trifluoromethoxy-benzyl)-butyramide] belongs 57.1 nM; to `C[C@H]1CN(CCC(C)(C(=O)NCc2ccc(Cl)c(C(F)(F)F)c2)c2ccc(Cl)c(Cl)c2)CCN1S(C)(=O)=O` (stereo partly drawn) [Example 84, N-(4-Chloro-3-trifluoromethyl-benzyl)-2-(3,4-dichloro-phenyl)-4-((S)-4-methanesulfonyl-3-methyl-piperazin-1-yl)-2-methyl-butyramide], 45.2 nM.

As for `C[C@H]1CN(CCC(C)(C(=O)N(C)Cc2ccc(C(F)(F)F)cc2)c2ccc(Cl)c(Cl)c2)CCN1S(C)(=O)=O` (stereo partly drawn) [Example 85, 2-(3,4-Dichloro-phenyl)-4-((S)-4-methanesulfonyl-3-methyl-piperazin-1-yl)-2,N-dimethyl-N-(4-trifluoromethyl-benzyl)-butyramide], the Ki amounted to 27.7 nM. The figure for `C[C@H]1CN(CCC(C)(C(=O)N(C)Cc2ccc(Cl)cc2)c2ccc(Cl)c(Cl)c2)CCN1S(C)(=O)=O` (stereo partly drawn) [Example 86, N-(4-Chloro-benzyl)-2-(3,4-dichloro-phenyl)-4-((S)-4-methanesulfonyl-3-methyl-piperazin-1-yl)-2,N-dimethyl-butyramide] is 66.3 nM; for `C[C@H]1CN(CCC(C)(C(=O)N(C)Cc2cccc(C(F)(F)F)c2)c2ccc(Cl)c(Cl)c2)CCN1S(C)(=O)=O` (stereo partly drawn) [Example 87, 2-(3,4-Dichloro-phenyl)-4-((S)-4-methanesulfonyl-3-methyl-piperazin-1-yl)-2,N-dimethyl-N-(3-trifluoromethyl-benzyl)-butyramide] it is 52 nM. As to `C[C@H]1CN(CCC(C)(C(=O)N(C)Cc2cccc(Cl)c2)c2ccc(Cl)c(Cl)c2)CCN1S(C)(=O)=O` (stereo partly drawn) [Example 88, N-(3-Chloro-benzyl)-2-(3,4-dichloro-phenyl)-4-((S)-4-methanesulfonyl-3-methyl-piperazin-1-yl)-2,N-dimethyl-butyramide], the Ki was determined as 107 nM.
